Columns and labels:
[1] = test system: C57BL/6 mice challenged with LPS; experiment: Mouse model of systemic inflammation induced by LPS (endotoxemia), survival; format: in vivo; conditions: i.p. LPS, first experiment, n=6 per group
Experimental: Animals with no treatments or given LPS alone were studied in parallel (n≥10 mice for each condition). **P<0.01, log-rank (Mantel-Cox) statistical tool used. The survival difference between nNIF-LPS and CRISPP-LPS compared to CRISPP-SCR-LPS trended toward significance (§ P=0.051).
Control mice were i.p. injected with saline alone. Fluid resuscitation and antibiotic treatment were not used in these experiments. Survival was assessed over 50 or 72 hour intervals. All mice were included in the final survival analysis.

[2] = test system: LPS-induced peritoneal NET formation; experiment: Mouse model of LPS-induced peritonitis (in vivo NET formation); conditions: C57BL/6 mice, i.p. LPS
Experimental: (§1) C57/BL6 or Swiss-Webster mice were pretreated in blinded fashion with CRISPP (10 mg/kg), nNIF (10 mg/kg), or CRISPP-SCR (10 mg/kg) by i.p. injection 1 hour prior to infection (E. coli, 4.5×10^7 cfu/mouse, i.p.) or inoculation (LPS, 25 mg/kg, i.p.) (SIGMA-ALDRICH®). Control mice were injected with saline alone. The mice were sacrificed in a CO2 chamber 3 hours post-infection/inoculation, and the peritoneal fluid and membrane samples were harvested. Briefly, the abdomen was disinfected and opened in the midline without injuring the muscle. The peritoneal cavity was lavaged with sterile saline solution (1 mL) and analyzed for in vivo NET formation, bacteriology, and leukocyte accumulation. NETs in the peritoneal fluid were qualitatively and quantitatively analyzed using live cell imaging with confocal microscopy and NET-associated histone H3 release assays. NETs on the serosal surface of the peritoneal membrane were assessed quantitatively using live cell imaging, followed by standardized grid analysis of five randomly selected high-power visual fields per tissue sample (IMAGEJ™ software, NIH). Peritoneal bacterial colony forming unit (cfu) counts were quantified by permeabilizing all recovered leukocytes with 0.1% Triton X-100 for 10 minutes and performing serial dilutions and bacterial cultures on 5% sheep blood agar plates (HARDY DIAGNOSTICS™). After a 24-hour incubation, bacterial counts were determined. Total leukocyte counts in the peritoneal lavage were determined in Neubauer chambers using an optical microscope after dilution in Turk's solution (2% acetic acid). Differential leukocyte analysis was performed using a 60× oil immersion objective to assess morphology of cyto-centrifuged cells stained with May-Gruenwald-Giemsa dye. All mice were included in the final analysis.

[3] = test system: neutrophil extracellular trap (NET) formation; experiment: In vitro NET formation by stimulated human PMNs (live cell imaging, NET-associated histone H3 release); format: cell-based
Experimental: Qualitative assessment of NET formation was performed as previously reported (see Yost C C, et al., Blood. 2009; 113 (25):6419-27 and McInturff A M, et al., Blood. 2012; 120 (15):3118-25). Briefly, primary PMNs isolated from preterm infants, healthy term infants, and healthy adults (2×10^6 cells/mL) were incubated with control buffer or stimulated with indicated agonists or bacteria for 1 hour at 37° C. in 5% CO2/95% air on glass coverslips coated with poly-L-lysine. For selected experiments, primary PMNs were pre-incubated with autologous plasma, cord blood plasma, nNIF (0.2-70 nM), CRISPP (0.2-70 nM), nNIF-SCR (1 nM), or CRISPP-SCR (1 nM) for one hour prior to stimulation. After pre-incubation and/or stimulation, PMNs were gently washed with PBS and incubated with a mixture of cell permeable (SYTO® Green, MOLECULAR PROBES®) and impermeable (SYTOX® Orange, MOLECULAR PROBES®) DNA fluorescent dyes. Confocal microscopy was accomplished using a FV1000 IX81 confocal microscope and FLUOVIEW™ software (OLYMPUS™). Both 20× and 60× objectives were used. Z-series images were obtained at a step size of 1 μm over a range of 20 μm for each field. FLUOVIEW™ and ADOBE™ PHOTOSHOP™ CS2 software was used for image processing.
Using BSL 2 safety protocols, primary PMNs isolated from healthy adults (2×10^6 cells/mL) were incubated with mock infection buffer or live dengue virus (M010.05) as for live cell imaging. After a 1-hour incubation, the infected PMNs were fixed with 2% p-FA for 10 minutes prior to incubation with fluorescently-labeled, cell-permeable and cell-impermeable DNA dyes, and imaged as for live cell imaging using confocal microscopy.
NET-associated histone H3 content was determined as previously described (see McInturff A M, et al., Blood. 2012; 120 (15):3118-25). After live cell imaging of control and stimulated primary PMNs (2×10^6/mL; various agonists), the cells were incubated with PBS containing DNase (40 U/mL) for 15 minutes at room temperature to break down and release NETs formed in response to stimulation. The supernatant was gently removed and centrifuged at 420×g for 5 minutes. The cell-free supernatant was then mixed 3:1 with 4× Laemmli buffer prior to western blotting. A polyclonal primary antibody against human histone H3 protein (CELL SIGNALING®) and infrared-conjugated secondary antibodies (LI-COR®) were used. Imaging and densitometry were performed on the ODYSSEY® infrared imaging system)(LI-COR®). This assay was previously validated as a surrogate for NET formation under in vitro conditions (see McInturff A M, et al., Blood. 2012; 120 (15):3118-25) as employed in the present studies.
Without being bound by any specific theory, it was hypothesized that placentally expressed HTRA1, a serine protease, regulates the formation of NET-inhibitory peptides through cleavage of AAT. To test this hypothesis, term and preterm placenta were assessed for HTRA1 expression via western blotting. HTRA1 and AAT plasma expression from term and preterm infants and adults were determined by ELISA. Bioactive (0.5 μg) or placental eluted HTRA1 was incubated with AAT (8 μM) for 18 hours at 37° C. Carboxy-terminus fragments of AAT were detected using western blotting and mass spectrometry. The reaction products were incubated for 1 hour with PMNs isolated from healthy adults prior to LPS stimulation (100 ng/mL) and assessed for NET formation using live cell imaging. Reactive oxygen species were assessed using flow cytometry, chemotaxis using a modified Boyden chamber assay, and bacterial killing using E. coli.

[4] = test system: NET formation in E. coli peritonitis; experiment: Mouse model of E. coli peritonitis (in vivo NET formation); conditions: C57BL/6 mice, 10 mg/kg i.p. 1 hour before E. coli i.p., 3 hours
Description: FIG. 8A depicts results of peritoneal fluid NET formation (red fluorescence, yellow arrow) assessed by live cell imaging (60× magnification, scale bar=50 μm) and histone H3 release (red dashed line=baseline arbitrarily set at 1). Three mice per group. One way ANOVA with Tukey's post hoc testing, ***P<0.001 for CRISPP and nNIF versus CRISPP-SCR.
FIG. 8B depicts results of NET formation on the surfaces of peritoneal membranes (red fluorescence, yellow arrows) that was quantified by counting the number of NETs that crossed standardized grid lines in […] (60× magnification; scale bar=50 μm) using IMAGEJ™ software. A second experiment yielded a similar pattern. FIGS. 8A and 8B depict C57BL/6 mice that were not pretreated or pretreated with nNIF, CRISPP, or CRISPP-SCR (10 mg/kg i.p.; 1 hour) and were inoculated with E. coli (4.5×10^7 bacteria i.p.). After 3 hours, the animals were sacrificed, and peritoneal fluid (FIG. 8A) and membranes (FIG. 8B) were collected for analysis.
FIG. 8C depicts C57BL/6 mice that were not pretreated (left two bars) or that were pretreated with CRISPP, nNIF, or CRISPP-SCR, and that were inoculated with E. coli i.p. as in FIGS. 8A and 8B. Neutrophil numbers in peritoneal fluid were counted after 3 hours (3-5 mice/group). […]
FIG. 8E depicts peritoneal fluid NET formation, imaged and measured as in FIG. 8A (10 mice/group). *P<0.05 for CRISPP/E. coli and nNIF/E. coli compared to CRISPP-SCR/E. coli and E. coli.
FIG. 8F depicts NET formation on peritoneal membrane surfaces, imaged and quantitated as in FIG. 8B (3 mice in each group). *P<0.05 for E. coli versus control (red dashed line); **P<0.01 for CRISPP-SCR/E. coli versus control; †P<0.05 for CRISPP/E. coli and nNIF/E. coli versus CRISPP-SCR/E. coli. One way ANOVA with Tukey's post-hoc testing applied in FIGS. 8E and 8F. In FIGS. 8E and 8F, Swiss-Webster mice that were not pretreated or that were pretreated with nNIF, CRISPP, or CRISPP-SCR were inoculated with E. coli i.p. as in FIGS. 8A and 8B. After 3 hours, peritoneal fluid and membranes were collected. FIGS. 8A-8F indicate that nNIF and CRISPP inhibit in vivo NET formation.
as §1

## V_MDITPMQVGPLKMKPKVIFNPFKLFENF [CRISPP-SCR, scrambled control peptide of CRISPP, reference compound]
[1]
  animals alive at 50 hours: 30%
[2]
  LPS-induced peritoneal NET formation: not
[3]; PMA 20 nM, peptides 1 nM, 1 hour preincubation
  PMA-stimulated NET deployment: not
[3]; adult PMNs preincubated with agent, LPS 100 ng/mL, 1 hour
  NET formation triggered by LPS: does not
[4]
  NET formation by peritoneal fluid PMNs: not
  deployment of NETs on the peritoneal surface: not

— patent publication US10857201B2, “NNIF and nNIF-related peptides and related methods” (UNIVERSITY OF UTAH RESEARCH FOUNDATION, priority 2016, dated 2020)
